# Source: US11541029B2, “High penetration compositions and their applications” (Techfields Pharma Co., Ltd., priority 2008, dated 2023)
# Legend:
# [1] = tested on: SLAC/MRL/LPR mice; test: Lupus in MRL/LPR mice treated from 16 weeks old, 30 mg/kg (10% aq.) on back skin twice per day; type: in vivo
# Protocol: . Progression of lupus was monitored once a week by measurement of hematuria, body weight and survival rate. The experiments were carried out in two groups of mice. One group of mice were 8 weeks old and had not shown SLE characteristics (Table 26a). The other group of mice were 16 weeks old, and had shown SLE characteristics (Table 26b).
# [2] = tested on: Human colon cancer cells (LS174J); test: Human colon cancer xenograft in nude mice
# Source text: Human colon cancer cells (LS174J, 2-3 mm^3 of tumor tissue was used in each mouse) were subcutaneously xenografted into nude mice (BALB).
# [3] = tested on: diseases and insects of rice; test: Antiviral, anti-fungus, anti-insect activity in rice; type: in vivo
# [4] = tested on: Human breast cancer cells (BCAP-37); test: Human breast cancer xenograft in nude mice
# Summary of the method: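 BCAP-37 tumour tissue (2-3 mm^3 per mouse) implanted subcutaneously in BALB nude mice, 12 groups of 7. Test salts given as 50 μl of 5% aqueous solution (2.5 mg compound per dose).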
# [5] = tested on: type 2 diabetes rat models [SLAC/GK(Goto and Kakisaki)]; test: Hypoglycemic effects of aspirin and its HPC in GK rats, once per day for 6 weeks; type: in vivo; conditions: for Blood Glucose Levels at day 1 / Blood Glucose Levels at day 42: no fasting, n = 5;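 on Blood Glucose Levels at day 42: blood glucose in mg/dL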
# Protocol: The blood glucose levels were measured three times every week (no fasting) from the third week to the sixth week.
structure (smiles),measurement,setting,value
"CCN(CC)CCOC(=O)c1ccccc1OC(C)=O.Cl [P-1, diethylaminoethyl acetylsalicylate.HCl salt]",Body Weight,[1]; week 16,42.6 ± 2.1 g
same,Hematuria (0-4),[1]; week 16,1.70 ± 0.26
same,Survival Rate,[1]; week 16,10/10
same,Body Weight,[1]; week 17,44.2 ± 2.0 g
same,Hematuria (0-4),[1]; week 17,1.50 ± 0.17
same,Survival Rate,[1]; week 17,10/10
same,Body Weight,[1]; week 18,46.6 ± 2.4 g
same,Hematuria (0-4),[1]; week 18,1.30 ± 0.15
same,Survival Rate,[1]; week 18,10/10
same,Body Weight,[1]; week 19,47.9 ± 2.5 g
same,Hematuria (0-4),[1]; week 19,0.80 ± 0.13
same,Survival Rate,[1]; week 19,10/10
same,Body Weight,[1]; week 20,46.8 ± 2.0 g
same,Hematuria (0-4),[1]; week 20,0.80 ± 0.13
same,Survival Rate,[1]; week 20,10/10
same,Body Weight,[1]; week 21,47.2 ± 2.2 g
same,Hematuria (0-4),[1]; week 21,0.80 ± 0.13
same,Survival Rate,[1]; week 21,10/10
same,Body Weight,[1]; week 22,47.6 ± 1.9 g
same,Hematuria (0-4),[1]; week 22,0.80 ± 0.20
same,Survival Rate,[1]; week 22,10/10
same,Body Weight,[1]; week 23,47.1 ± 2.3 g
same,Hematuria (0-4),[1]; week 23,0.80 ± 0.20
same,Survival Rate,[1]; week 23,10/10
same,Body Weight,[1]; week 24,46.8 ± 2.1 g
same,Hematuria (0-4),[1]; week 24,0.80 ± 0.20
same,Survival Rate,[1]; week 24,10/10
same,Body Weight,[1]; week 25,47.2 ± 2.0 g
same,Hematuria (0-4),[1]; week 25,0.70 ± 0.15
same,Survival Rate,[1]; week 25,10/10
same,Body Weight,[1]; week 26,46.9 ± 2.6 g
same,Hematuria (0-4),[1]; week 26,0.70 ± 0.15
same,Survival Rate,[1]; week 26,10/10
same,Body Weight,[1]; week 27,47.3 ± 2.0 g
same,Hematuria (0-4),[1]; week 27,0.60 ± 0.22
same,Survival Rate,[1]; week 27,10/10
same,Body Weight,[1]; week 28,47.6 ± 2.4 g
same,Hematuria (0-4),[1]; week 28,0.70 ± 0.15
same,Survival Rate,[1]; week 28,10/10
same,Body Weight,[1]; week 29,47.2 ± 2.5 g
same,Hematuria (0-4),[1]; week 29,0.70 ± 0.15
same,Survival Rate,[1]; week 29,10/10
same,Body Weight,[1]; week 30,46.4 ± 2.1 g
same,Hematuria (0-4),[1]; week 30,0.60 ± 0.22
same,Survival Rate,[1]; week 30,10/10
same,Body Weight,[1]; week 31,47.1 ± 2.2 g
same,Hematuria (0-4),[1]; week 31,0.80 ± 0.20
same,Survival Rate,[1]; week 31,10/10
same,Body Weight,[1]; week 32,46.6 ± 2.4 g
same,Hematuria (0-4),[1]; week 32,0.70 ± 0.15
same,Survival Rate,[1]; week 32,10/10
same,Body Weight,[1]; week 33,47.3 ± 2.1 g
same,Hematuria (0-4),[1]; week 33,0.50 ± 0.17
same,Survival Rate,[1]; week 33,10/10
same,Body Weight,[1]; week 34,47.6 ± 2.0 g
same,Hematuria (0-4),[1]; week 34,0.70 ± 0.15
same,Survival Rate,[1]; week 34,10/10
same,Body Weight,[1]; week 35,47.2 ± 2.0 g
same,Hematuria (0-4),[1]; week 35,0.70 ± 0.15
same,Survival Rate,[1]; week 35,10/10
same,Body Weight,[1]; week 36,46.9 ± 2.1 g
same,Hematuria (0-4),[1]; week 36,0.50 ± 0.17
same,Survival Rate,[1]; week 36,10/10
same,Body Weight,[1]; week 37,47.4 ± 2.7 g
same,Hematuria (0-4),[1]; week 37,0.70 ± 0.15
same,Survival Rate,[1]; week 37,10/10
same,Body Weight,[1]; week 38,46.9 ± 2.3 g
same,Hematuria (0-4),[1]; week 38,0.60 ± 0.22
same,Survival Rate,[1]; week 38,10/10
same,Body Weight,[1]; week 39,47.2 ± 2.0 g
same,Hematuria (0-4),[1]; week 39,0.50 ± 0.17
same,Survival Rate,[1]; week 39,10/10
same,Body Weight,[1]; week 40,47.6 ± 2.3 g
same,Hematuria (0-4),[1]; week 40,0.70 ± 0.15
same,Survival Rate,[1]; week 40,10/10
same,Body Weight,[1]; week 41,47.7 ± 2.2 g
same,Hematuria (0-4),[1]; week 41,0.60 ± 0.22
same,Survival Rate,[1]; week 41,10/10
same,Body Weight,[1]; week 42,46.9 ± 2.0 g
same,Hematuria (0-4),[1]; week 42,0.70 ± 0.15
same,Survival Rate,[1]; week 42,10/10
same,Body Weight,[1]; week 43,47.5 ± 2.8 g
same,Hematuria (0-4),[1]; week 43,0.60 ± 0.22
same,Survival Rate,[1]; week 43,10/10
same,Body Weight,[1]; week 44,47.6 ± 2.0 g
same,Hematuria (0-4),[1]; week 44,0.70 ± 0.15
same,Survival Rate,[1]; week 44,10/10
same,Body Weight,[1]; week 45,47.9 ± 2.5 g
same,Hematuria (0-4),[1]; week 45,0.50 ± 0.17
same,Survival Rate,[1]; week 45,10/10
same,Body Weight,[1]; week 46,47.6 ± 2.4 g
same,Hematuria (0-4),[1]; week 46,0.70 ± 0.15
same,Survival Rate,[1]; week 46,10/10
same,Body Weight,[1]; week 47,47.3 ± 2.8 g
same,Hematuria (0-4),[1]; week 47,0.60 ± 0.22
same,Survival Rate,[1]; week 47,10/10
same,Body Weight,[1]; week 48,46.6 ± 2.8 g
same,Hematuria (0-4),[1]; week 48,0.50 ± 0.17
same,Survival Rate,[1]; week 48,10/10
same,Body Weight,[1]; week 49,46.9 ± 2.1 g
same,Hematuria (0-4),[1]; week 49,0.60 ± 0.22
same,Survival Rate,[1]; week 49,10/10
same,Body Weight,[1]; week 50,47.1 ± 2.7 g
same,Hematuria (0-4),[1]; week 50,0.50 ± 0.17
same,Survival Rate,[1]; week 50,10/10
same,tumor Size at day 30,[2]; about 50 μl of 5% topically every 12 hours,480 ± 130 mm^3
same,Weight of mice at day 30,[2]; in vivo,23 ± 3
same,Yield of good rice,"[3]; 1/2 acre per group, imidacloprid co-applied in group C",1800 kg
same,harvest dates earlier,[3]; group C and D,5 days
same,tumor Size at day 42,[4]; 50 μl of 5% topically every 8 hours,140 ± 50 mm^3
same,Weight of mice at day 42,[4]; in vivo,24 ± 3
same,Blood Glucose Levels at day 1,"[5]; 50 mg/kg, orally",215.6 ± 19.5 mg/dL
same,Blood Glucose Levels at day 42,"[5]; 50 mg/kg, orally",172.4 ± 21.5 mg/dL
same,Blood Glucose Levels at day 1,"[5]; 50 mg/kg, transdermally",217.3 ± 19.7 mg/dL
same,Blood Glucose Levels at day 42,"[5]; 50 mg/kg, transdermally",135.4 ± 19.8 mg/dL
same,Blood Glucose Levels at day 1,"[5]; 100 mg/kg, orally",216.4 ± 18.5 mg/dL
same,Blood Glucose Levels at day 42,"[5]; 100 mg/kg, orally",133.4 ± 23.1 mg/dL
same,Blood Glucose Levels at day 1,"[5]; 100 mg/kg, transdermally",219.8 ± 20.4 mg/dL
same,Blood Glucose Levels at day 42,"[5]; 100 mg/kg, transdermally",115.4 ± 16.7 mg/dL
same,Blood Glucose Levels at day 1,"[5]; 200 mg/kg, orally",214.4 ± 26.5 mg/dL
same,Blood Glucose Levels at day 42,"[5]; 200 mg/kg, orally",125.4 ± 26.8 mg/dL
same,Blood Glucose Levels at day 1,"[5]; 200 mg/kg, transdermally",219.4 ± 23.5 mg/dL
same,Blood Glucose Levels at day 42,"[5]; 200 mg/kg, transdermally",111.4 ± 23.2 mg/dL
same,Blood Glucose Levels at day 1,"[5]; 300 mg/kg, orally",217.4 ± 25.5 mg/dL
same,Blood Glucose Levels at day 42,"[5]; 300 mg/kg, orally",115.4 ± 18.2 mg/dL
same,"anti-diabetic effect, times stronger than that of aspirin",[5]; oral administration,more than 5 times
